Molecules are shown by their SMILES. Like-named read-outs stand apart in the source and are kept apart here.

For data set [1] the following is noted: 14-membered ring.

For `CC(C)(C)OC(=O)N1CC[C@H]2C[C@H]1C(=O)NCC(F)COc1c(OCc3ccccc3)ccc3ncc(cc13)N2` (stereo partly drawn), the ring closure, isolated yield in data set [1] (from CC(C)(C)OC(=O)N1CC[C@H](Nc2cnc3ccc(OCc4ccccc4)c(O)c3c2)C[C@H]1C(=O)NCC(F)CO, ether bond, PPh3/DTBAD, toluene, 4.84 mM, 25.0 °C, 1.0 h) came to 67%. Under “from CC(C)(C)OC(=O)N1CC[C@H](Nc2cnc3ccc(OCc4ccccc4)c(O)c3c2)C[C@H]1C(=O)NCC(F)CO, ether bond, PPh3 / di-tert-butyl azodicarboxylate, toluene, 4.76 mM, 25.0 °C, 1.0 h”, this molecule had a ring closure, yield of all isomers of 67%.
With `CC(C)(C)OC(=O)N1CC[C@H]2C[C@H]1C(=O)NCCCOc1c(Br)ccc3ncc(nc13)N2`, the ring closure, isolated yield in data set [1] (from CC(C)(C)OC(=O)N1CC[C@H](Nc2cnc3ccc(Br)c(O)c3n2)C[C@H]1C(=O)NCCCO, ether bond, PPh3/DTBAD, THF, 5.0 mM, 25.0 °C, 2.0 h) was determined as 70%; in data set [1] (from CC(C)(C)OC(=O)N1CC[C@H](Nc2cnc3ccc(Br)c(O)c3n2)C[C@H]1C(=O)NCCCO, ether bond, PPh3/DTBAD, THF, 5.0 mM, 25.0 °C, 12.0 h) it was 61%. Also, the ring closure, yield of all isomers runs as follows: (from CC(C)(C)OC(=O)N1CC[C@H](Nc2cnc3ccc(Br)c(O)c3n2)C[C@H]1C(=O)NCCCO, ether bond, PPh3 / di-tert-butyl azodicarboxylate, tetrahydrofuran, 4.91 mM, 25.0 °C, 12.0 h) 61%; (from CC(C)(C)OC(=O)N1CC[C@H](Nc2cnc3ccc(Br)c(O)c3n2)C[C@H]1C(=O)NCCCO, ether bond, PPh3 / di-tert-butyl azodicarboxylate, tetrahydrofuran, 4.92 mM, 25.0 °C, 2.0 h) 70%.
Take `CC1CC2C[C@@H](C(=O)NCCC=Cc3c(OCc4ccccc4)ccc4ncc(cc34)N2)N1C` (stereo partly drawn): in data set [1] (from CC1CC(N)C[C@@H](C(=O)NCC/C=C/c2c(OCc3ccccc3)ccc3ncc(Br)cc23)N1C, cn_pd bond, Pd2(dba)3/XPhos/NaOPh, 1,4-dioxane, 97.4 mM, 14.0 h), the ring closure, isolated yield was 75%.
For `CC(C)(C)OC(=O)N1CC[C@H]2C[C@H]1C(=O)OCCCOc1c(OCc3ccccc3)ccc3ncc(cc13)N2`, the ring closure, isolated yield in data set [1] (from CC(C)(C)OC(=O)N1CC[C@H](N)C[C@H]1C(=O)OCCCOc1c(OCc2ccccc2)ccc2ncc(Br)cc12, cn_pd bond, tBuXPhos Pd G3/Cs2CO3, 1,4-dioxane, 98.8 mM, 120.0 °C, 72.0 h) came out at 7%. Under “from CC(C)(C)OC(=O)N1CC[C@H](N)C[C@H]1C(=O)OCCCOc1c(OCc2ccccc2)ccc2ncc(Br)cc12, cn_pd bond, tBuXPhos Pd G3 / Cs2CO3, 1,4-dioxane, 98.8 mM, 120.0 °C, 72.0 h”, this molecule returned a ring closure, yield of all isomers of 7%.

The record behind these values is patent US20230357271A1, “MACROCYCLIC COMPOUND” (Asahi Kasei Pharma Corporation, priority 2020, published 2023).
